Our source for the inhibition values is article PMC5372988, “Bulgecin A: The Key to a Broad-Spectrum Inhibitor That Targets Lytic Transglycosylases” (Antibiotics, 2017).

The test concerns the target T1, LtgA (Neisseria meningitidis, UniProt Q9JXP1).
T1 construct: gene NMB1949; GST fusion from pGEX-4T1, GST cut by thrombin; E. coli BL21(DE3) Gold; 577 residues in model
T1 sequence (Q9JXP1 26-616): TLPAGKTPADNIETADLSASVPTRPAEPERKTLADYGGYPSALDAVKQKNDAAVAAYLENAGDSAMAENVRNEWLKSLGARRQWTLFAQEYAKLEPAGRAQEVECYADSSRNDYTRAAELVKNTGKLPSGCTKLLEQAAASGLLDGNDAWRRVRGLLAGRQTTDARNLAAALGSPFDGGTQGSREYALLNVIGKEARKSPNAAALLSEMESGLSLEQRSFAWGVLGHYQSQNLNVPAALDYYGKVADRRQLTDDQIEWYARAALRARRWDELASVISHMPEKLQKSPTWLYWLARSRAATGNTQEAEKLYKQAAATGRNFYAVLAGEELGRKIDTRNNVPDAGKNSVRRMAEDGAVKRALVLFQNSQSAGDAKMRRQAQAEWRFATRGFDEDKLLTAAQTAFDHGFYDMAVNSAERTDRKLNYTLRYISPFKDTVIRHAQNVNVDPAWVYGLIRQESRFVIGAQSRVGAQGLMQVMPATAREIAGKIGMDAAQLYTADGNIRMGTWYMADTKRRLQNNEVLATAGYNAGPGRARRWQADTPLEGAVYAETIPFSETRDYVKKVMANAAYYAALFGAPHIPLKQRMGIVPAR
Briefly: RP-HPLC of muropeptides released from N. meningitidis peptidoglycan. The format is biochemical.

The inhibition is the share of the control response that was lost under treatment.

`CC(=O)N[C@H]1[C@H](O[C@H]2C[C@@H](C(=O)NCCS(=O)(=O)O)N[C@@H]2CO)O[C@H](CO)[C@@H](OS(=O)(=O)O)[C@@H]1O` [bulgecin A]: the inhibition at 90 µM is 66 ± 9.4%.
